Reference: patent publication US10221139B2, “Inhibitors of histone demethylases” (Gilead Sciences, Inc., priority 2012, dated 2019)

The molecules below were run on MCF7 cells (assay: MCF7 cell proliferation assay (ATPlite)). Conditions: Homo sapiens, 120 hours.
Format: cell-based
Procedure: MCF7 cells were seeded at 1250 cells/well in 50 μl medium/well in black 96 well plates. Cells were incubated for 24 hours before addition of compound. Compounds were diluted in complete medium (50 μl/well) and added to the plates in duplicates. The total volume of medium in the wells was 100 μl, and the final concentration of DMSO 0.5%. Complete medium used was DMEM with GlutaMAX containing 10% FBS and pen/strep.
120 hours after addition of compounds, the plates were harvested and analyzed by ATPlite 1 Step (Perkin Elmer, cat no 6016739) according to the manufactures recommendation. Briefly, 100 μl ATP lite solution was added to each well, plates were vortexed at 700 rpm 2 minutes, followed by 20 minutes incubation in the dark, and then analyzed for luminescence on EnSpire 2300 Mulitilabel reader (Perkin Elmer). EC50 values were calculated using GraphPad Prism 6.
With `CCN(CCN(C)C)C(=O)CNCc1cc(C(=O)Oc2ccc(C(C)(C)C)cc2)ccn1` [drawing 278, 4-tert-butylphenyl 2-{[({[2-(dimethylamino)ethyl](ethyl)carbamoyl}methyl)amino]methyl}pyridine-4-carboxylate] the EC50 was less than 1000 nM. For `CCN(CCN(C)C)C(=O)CNCc1cc(C(=O)OC(C)CC(C)=O)ccn1` (centres unmarked) [drawing 279, 4-oxopentan-2-yl 2-{[({[2-(dimethylamino)ethyl](ethyl)carbamoyl}methyl)amino]methyl}pyridine-4-carboxylate], the EC50 was less than 1000 nM. For `CCN(CCN(C)C)C(=O)CNCc1cc(C(=O)OC(C)CCNC(=O)C(F)(F)F)ccn1` (centres unmarked) [drawing 280, 4-(trifluoroacetamido)butan-2-yl 2-{[({[2-(dimethylamino)ethyl](ethyl)carbamoyl}methyl)amino]methyl}pyridine-4-carboxylate], the EC50 was less than 1000 nM. `CCN(CCN(C)C)C(=O)CNCc1cc(C(=O)OC(C)CCN(C)C(=O)C(F)(F)F)ccn1` (centres unmarked) [drawing 281, 4-(2,2,2-trifluoro-N-methylacetamido)butn-2-yl 2-{[({[2-(dimethylamino)ethyl](ethyl)carbamoyl}methyl)amino]methyl}pyridine-4-carboxylate] gave an EC50 of less than 1000 nM. Work on `CCOC(=O)c1ccnc(CNCC(=O)N(CC)CCN(C)C)c1` [drawing 282, ethyl 2-{[({[2-(dimethylamino)ethyl](ethyl)carbamoyl}methyl)amino]methyl}pyridine-4-carboxylate] yielded an EC50 of less than 1000 nM. In the case of `C=CC(CCNC(=O)C(F)(F)F)OC(=O)c1ccnc(CNCC(=O)N(CC)CCN(C)C)c1` (centres unmarked) [drawing 283, 5-(trifluoroacetamido)pent-1-en-3-yl 2-{[({[2-(dimethylamino)ethyl](ethyl)carbamoyl}methyl)amino]methyl}pyridine-4-carboxylate], the EC50 is reported as less than 1000 nM. For `C=CC(CCN(C)C(=O)C(F)(F)F)OC(=O)c1ccnc(CNCC(=O)N(CC)CCN(C)C)c1` (centres unmarked) [drawing 284, 5-(2,2,2-trifluoro-N-methylacetamido)pent-1-en-3-yl 2-{[({[2-(dimethylamino)ethyl](ethyl)carbamoyl}methyl)amino]methyl}pyridine-4-carboxylate], the EC50 was less than 1000 nM. With `CCCCCCCCCCCCCCCC(=O)OCC(COC(=O)CCCCCCCCCCCCCCC)OC(=O)c1ccnc(CNCC(=O)N(CC)CCN(C)C)c1` [drawing 285, 2-(2-{[({[2-(dimethylamino)ethyl](ethyl)carbamoyl}methyl)amino]methyl}pyridine-4-carbonyloxy)-3-(hexadecanoyloxy)propyl hexadecanoate] the EC50 was less than 1000 nM. In the case of `CCCCCCCCCCCCCCCC(=O)OCC(COC(=O)c1ccnc(CNCC(=O)N(CC)CCN(C)C)c1)OC(=O)CCCCCCCCCCCCCCC` (centres unmarked) [drawing 286, 1-(2-{[({[2-(dimethylamino)ethyl](ethyl)carbamoyl}methyl)amino]methyl}pyridine-4-carbonyloxy)-3-(hexadecanoyloxy)propan-2-yl hexadecanoate], the EC50 is reported as less than 1000 nM. Work on `CCN(CCN(C)C)C(=O)CNCc1cc(C(=O)OC)ccn1` [drawing 287, methyl 2-{[({[2-(dimethylamino)ethyl](ethyl)carbamoyl}methyl)amino]methyl}pyridine-4-carboxylate] yielded an EC50 of less than 1000 nM. Molecule `CCN(CCN(C)C)C(=O)CNCc1cc(C(=O)N(C)S(C)(=O)=O)ccn1` [drawing 288, 2-{[({[2-(dimethylamino)ethyl](ethyl)carbamoyl}methyl)amino]methyl}-N-methanesulfonyl-N-methylpyridine-4-carboxamide] has an EC50 of less than 1000 nM. Work on `CCN(CCN(C)C)C(=O)CNCc1cc(C(=O)N2CCOC2=O)ccn1` [drawing 289, N-[2-(dimethylamino)ethyl]-N-ethyl-2-({[4-(2-oxo-1,3-oxazolidine-3-carbonyl)pyridin-2-yl]methyl}amino)acetamide] yielded an EC50 of 1000 to 50000 nM. Work on `CCN(CCN(C)C)C(=O)CNCc1cc(C(=O)OC(CNC(=O)C(F)(F)F)CC(=O)OC(C)C)ccn1` (centres unmarked) [drawing 290, propan-2-yl 3-(2-{[({[2-(dimethylamino)ethyl](ethyl)carbamoyl}methyl)amino]methyl}pyridine-4-carbonyloxy)-4-(trifluoroacetamido)butanoate] yielded an EC50 of 1000 to 50000 nM. For `CCN(CCN(C)C)C(=O)CNCc1cc(C(=O)OCC(F)(F)F)ccn1` [drawing 292, 2,2,2-trifluoroethyl 2-{[({[2-(dimethylamino)ethyl](ethyl)carbamoyl}methyl)amino]methyl}pyridine-4-carboxylate], the EC50 was 1000 to 50000 nM. For `CCN(CCN(C)C)C(=O)CNCc1cc(C(=O)Nc2ncco2)ccn1` [drawing 293, 2-{[({[2-(dimethylamino)ethyl](ethyl)carbamoyl}methyl)amino]methyl}-N-(1,3-oxazol-2-yl)pyridine-4-carboxamide], the EC50 was 1000 to 50000 nM. Work on `CCN(CCN(C)C)C(=O)CNCc1cc(C(=O)OCCF)ccn1` [drawing 294, 2-fluoroethyl 2-{[({[2-(dimethylamino)ethyl](ethyl)carbamoyl}methyl)amino]methyl}pyridine-4-carboxylate] yielded an EC50 of less than 1000 nM. For `CCN(CCN(C)C)C(=O)CNCc1cc(C(=O)OCC(F)F)ccn1` [drawing 295, 2,2-difluoroethyl 2-{[({[2-(dimethylamino)ethyl](ethyl)carbamoyl}methyl)amino]methyl}pyridine-4-carboxylate], the EC50 was less than 1000 nM.
